These are literature values, as cited in patent publication US20140080794A1, “Methods and Compositions for the Treatment of Estrogen-Dependent Hyperproliferative Uterine Disorders” (Vivus, Inc., priority 2008, published 2014).

The series has as its system endometriosis patients.

For the compound `CC(C)(C#N)c1cc(Cn2cncn2)cc(C(C)(C)C#N)c1` [anastrozole, α, α, α′, α′-tetramethyl-5-(1H-1,2,4-triazol-1-ylmethyl)-1,3-benzene-diacetonitrile], the symptoms of endometriosis result (1 mg anastrozole and an oral contraceptive (20 μg ethinyl estradiol/1 mg levonorgestrel) per day for six months) is listed as “symptom improvement”. Also, the systemic estradiol levels entry (1 mg anastrozole and an oral contraceptive (20 μg ethinyl estradiol/1 mg levonorgestrel) per day, all patients, by the end of the treatment period) was “significantly suppressed”.
